Series [1] relates to dsDNA (DNA, duplex) CTATAGCGCGCTATAG
Kind of series: FRET melting. The following applies: 100 mM KCl; 10 mM lithium cacodylate pH 7.4, 0.25% DMSO; 12.5 μM compound, 0.25 μM DNA (50:1).

Series [2] deals with Telo (DNA, G4) AGGGTTAGGGTTAGGGTTAGGG
Briefly: FRET melting. Particulars: 100 mM KCl; 10 mM lithium cacodylate pH 7.4, 0.25% DMSO; 12.5 μM compound, 0.25 μM DNA (50:1).

For series [3], the system named is human telomeric sequence Telo G4. Kind of series: FRET melting assay, Telo. The format is binding. Particulars: Table S2, primary screening lead compounds, 50:1. Here is the method:
(§1) To evaluate stabilizing properties of the ligands in a complex with oligodeoxyribonucleotides (ODNs) melting with fluorescence registration was used. ODN (0.5 μM) (Table 1), labeled with 6-carboxyfluorescein (FAM) and 6-carboxytetramethylrhodamine (TAMRA) at the 5′- and 3′-end, respectively, were folded in lithium cacodylate buffer (10 mM, pH 7.4) with 100 mM KCl by heating at 95 °C for 5 min and gradually cooling to r.t. GFP chromophore analogs (5 mM solution in DMSO) were diluted with the same buffer to the final concentration of 25 μM and mixed with an equal volume of 0.5 μM ODN solution resulting in a molar ratio of 50:1 (total volume was 50 μL). For the titration experiments molar ratios of 20:1 and 2:1 were used. Samples were analyzed using DTprime qPCR system (DNA-Technology LLC, Moscow, Russia). Fluorescence was registered by detection of FAM emission at 520 nm upon excitation at 495 nm in the temperature range of 30–95 °C with 1 °C/min gradient. Tm was determined using the instrument software and ΔTm was calculated relative to ODN Tm in a buffer solution containing 0.25% (v/v) DMSO. The primary and secondary screening were carried out in singlicate and triplicate, respectively.
(§2) Initially we screened an in-house library of 440 synthetic GFP chromophore analogues for interaction with HIV-1 LTR-III sequence, which modulates HIV-1 promoter activity, using high-throughput screening (HTS) FRET melting assay (Table S1). […] We selected 11 compounds (Figure 2A), displaying stabilization in the range of 2.4–7.8 °C, and evaluated their ability to stabilize other G4-forming sequences, including human telomeric sequence Telo (one of the most common G4 structures in the human genome, having two conformations, Hybrid-1 and Hybrid-2 [36]) and model G4 […] (the G-rich Pu39 region of the P1 promoter of the oncogene BCL-2, an apoptosis regulator [37] with polymorphic conformational structure), as well as double stranded oligonucleotide (duplex) control sequence (Figure 2B, Table S2).

The next series deals with MT4 cells. Kind of series: Cytotoxicity test. The following applies: Table S12, nine days. The format is cell-based.
The next series can be described thus: Cytotoxicity test. In kind it is cell-based. Particulars: human, MT4 cells (human T cell leukemia), Figure 7.
For series [4], the system named is dsDNA (double stranded control sequence). Kind of series: FRET melting assay, duplex control. The following applies: Table S2, primary screening lead compounds, 50:1. The format is binding. Here is the method:
as §1, §2

The next series relates to LTR-III G4. Kind of series: NMR titration of LTR-III. The format is binding, HIV-1. As for the experimental part:
All NMR spectra were acquired on a Bruker Avance III 800 MHz spectrometer equipped with a cryoprobe. Titration of 50 μM LTR-III samples (70 mM KCl, 20 mM potassium phosphate buffer, pH 7.0) with 2 mM ZS260.1 and N979 ligands dissolved in DMSO was performed. 1D ^1H NMR spectra were used to track the changes during titration. ^1H-^13C HSQC and HMBC at 35 °C were used to transfer the assignment of H6/C6 and H8/C8 signals from previously obtained assignment. To identify the LTR-III residues that are most influenced by addition of ZS260.1 ligand, the intensities of cross-peaks in the ^1H-^13C HSQC spectra measured with and without added ligand were compared. The H6/C6 and H8/C8 cross-peak intensities were measured at molar ratio of LTR-III to ZS260.1 of 5:1 (35 °C, 0.5 mM LTR-III G4).
The ligand binding processes are probably in intermediate to fast regime on the NMR timescale. Therefore, the resonances of residues that are close to the ligand binding site (s) become broadened and attenuated (intermediate exchange regime).
To determine affinity of the compound ZS260.1 to LTR-III G4 we analyzed changes in H8 chemical shift of G8 residue in 1D ^1H NMR spectra. […] The titration data were successfully approximated by simple chemical reaction A + B = AB, that implies one to one stoichiometry of binding that is consistent with literature data (Suppl. S8). The dissociation constant for the LTR-III/ZS260.1 complex (Kd) was on the order of 3 μM.

For series [5], the system named is HIV-1 strain NL4-3 in MT4 cells. Kind of series: Cytopathic effect inhibition test. In kind it is cell-based. The following applies: HIV-1 NL4-3, MT4 cells. Background: Cytopathic effects are the visible damage that an infection or toxin causes in cultured cells.
In series [6] the test system is HIV-1 LTR-III G-quadruplex (FAM/TAMRA-labeled LTR-III). Briefly: FRET melting assay, LTR-III G4. In kind it is binding. The method in brief:
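Melting is followed by FAM fluorescence (ex 495/em 520 nm) while heating at 1 °C/min from 30 to 95 °C. Labelled ODN at 0.5 μM, pre-annealed in 10 mM Li cacodylate, 100 mM KCl, pH 7.4, mixed with ligand at 50:1 (25 μM), or 20:1 and 2:1 for titration. ΔTm is relative to the 0.25% DMSO buffer control.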

Series [7] relates to Pu39 G4 (G-rich region of the P1 promoter of BCL-2). Kind of series: FRET melting assay, Pu39. In kind it is binding, human. The following applies: Table S2, primary screening lead compounds, 50:1. Here is the method: as §1, §2

Read-outs that look alike come from different tables or passages of the source.

As for `COc1ccc(/C=C/C=C/C2=NC(=C\c3ccc(O)cc3OC)/C(=O)N2C)cc1`, the ΔTm (commonly the shift of the melting midpoint relative to a reference) was -0.1±0.04 °C in series [1] and 3.9±0.1 °C in [2].

In the case of `COc1cc(/C=C2N=C(/C=C/c3cc(Br)c(O)c(Br)c3)N(C)C\2=O)cc(OC)c1O` [ZS 260.1], the “ΔTm Telo” value in series [3] was determined as 0.7±0.2 °C. Moreover, the “СС50 (MT4)” value in the series on MT4 cells came to 4.1 ± 0.6 µM. Moreover, in “Cytotoxicity test”, it took 4.1 ± 0.6 µM to reach half-maximal cytotoxicity (CC50 at 9 days). The “ΔTm Duplex” value in [4] is 0.1±0.09 °C. Also, the “interaction with LTR-III by NMR titration (selective signal attenuation)” value with LTR-III G4 (50 μM LTR-III, 1D 1H NMR) is “interact with the LTR-III molecule”. Moreover, the Kd on LTR-III G4 (H8 chemical shift of G8 in 1D 1H NMR, 1:1 binding model, read-out: dissociation constant for the LTR-III/ZS260.1 complex (Kd)) was ~3000 nM. For the same compound, the ΔTm in [1] worked out at 0.1±0.09 °C; in [2], 0.7±0.2 °C. In addition, the EC50 (usually the concentration needed to bring the measured effect to its halfway point) in series [5] (Human immunodeficiency virus 1, NL43, 216 h, Table S12, CPE, nine-day incubation, read-out: EC50) is 3.78 ± 0.91 µM; in series [5] (Human immunodeficiency virus 1, NL43, Figure 7, read-out: Antiviral activity EC50 (HIV)) it was 3.8 ± 0.9 µM; in series [5] (Table S12, CPE, nine-day incubation), “micromolar range”. Further, in [6] (Figure 7, stabilization group), the “LTR III stabilization” value is > 3 °C. The “LTR-III ΔTm” value in series [6] (Table S1 primary screening, ligand:ODN 50:1, singlicate) is 7.8 °C. Also, the “LTR-III (average)” value in [6] (Table S12, average stabilization) was 8,35 °C. For the same compound, the “ΔTm Pu39” value in [7] came out at 0.9±0.6 °C.

Source of the values: PMC8533149 (Biomolecules, 2021).
